Assay results reported in publication PMC2606880 (Diabetes, 2009).
Where two headings read alike, the source gives them in different places. One block for each compound: values may come before it.

Legend:
conscious dogs [1] = type: in vivo, dog; conditions: vildagliptin-treated group
conscious dogs [2] = type: in vivo, dog; conditions: for Net hepatic alanine uptake / Net hepatic glycerol uptake / Plasma free fatty acid level: vildagliptin 1 mg/kg oral, mean ± SE, n = 6
conscious dogs [3] = test: Tolerability of oral vildagliptin; type: in vivo, dog; conditions: vildagliptin 1 mg/kg by stomach gavage; all animals
type 2 diabetic patients = conditions: 4 weeks of treatment; cited from earlier work
conscious dogs [4] = test: Plasma pancreatic hormone levels; type: in vivo, dog; conditions: vildagliptin-treated group
[5] = cited from earlier work
[6] = basal period, mean ± SEM, n = 6

Structure (SMILES): N#C[C@@H]1CCCN1C(=O)CNC12CC3CC(CC(O)(C3)C1)C2 [Vildagliptin]
increase in arterial and portal vein GLP-1 concentrations (vildagliptin 1 mg/kg oral vs control): 70%
increase of nonhepatic glucose uptake from basal (conscious dogs [1]; basal period to last 3 h, not significant vs control): 8.1 ± 1.4 mg/kg/min
Nonhepatic glucose uptake (non-HGU) (conscious dogs [1]; [6]): 2.3 ± 0.3 mg/kg/min
net hepatic glucose balance (positive = output) (conscious dogs [1]; [6]): 2.1 ± 0.2 mg/kg/min
Nonhepatic glucose uptake (non-HGU) (conscious dogs [1]; last 3 h, mean ± SEM, n = 6): 10.4 ± 1.4 mg/kg/min
net hepatic glucose fractional extraction (conscious dogs [1]; last 3 h, mean ± SEM, n = 6, P < 0.05): 0.06 ± 0.01
Free fatty acid and glycerol levels lower than in control (conscious dogs [2]; basal period, vildagliptin-treated group): ~25%
Net hepatic alanine uptake (conscious dogs [2]; experimental period 60 min): 1.8 ± 0.2 µmol/kg/min
Net hepatic glycerol uptake (conscious dogs [2]; experimental period 60 min): 0.5 ± 0.2 µmol/kg/min
Plasma free fatty acid level (conscious dogs [2]; experimental period 60 min): 111 ± 23 µmol/L
Net hepatic alanine uptake (conscious dogs [2]; experimental period 120 min): 2.0 ± 0.5 µmol/kg/min
Net hepatic glycerol uptake (conscious dogs [2]; experimental period 120 min): 0.5 ± 0.1 µmol/kg/min
Plasma free fatty acid level (conscious dogs [2]; experimental period 120 min): 88 ± 26 µmol/L
Net hepatic alanine uptake (conscious dogs [2]; experimental period 180 min): 2.2 ± 0.2 µmol/kg/min
Net hepatic glycerol uptake (conscious dogs [2]; experimental period 180 min): 0.4 ± 0.2 µmol/kg/min
Plasma free fatty acid level (conscious dogs [2]; experimental period 180 min): 71 ± 25 µmol/L
Net hepatic alanine uptake (conscious dogs [2]; experimental period 210 min): 2.4 ± 0.2 µmol/kg/min
Net hepatic glycerol uptake (conscious dogs [2]; experimental period 210 min): 0.5 ± 0.2 µmol/kg/min
Plasma free fatty acid level (conscious dogs [2]; experimental period 210 min): 82 ± 31 µmol/L
Net hepatic alanine uptake (conscious dogs [2]; experimental period 240 min): 2.5 ± 0.3 µmol/kg/min
Net hepatic glycerol uptake (conscious dogs [2]; experimental period 240 min): 0.3 ± 0.1 µmol/kg/min
Plasma free fatty acid level (conscious dogs [2]; experimental period 240 min): 66 ± 15 µmol/L
tolerability (conscious dogs [3]): well tolerated
increase in the rise in active GLP-1 after meals (type 2 diabetic patients): twofold or greater increase
increase of arterial plasma C-peptide (conscious dogs [4]; basal period to last 3 h): 3.6 fold
Hepatic sinusoidal plasma glucagon level (conscious dogs [4]; [6]): 43 ± 3 pg/mL
arterial plasma C-peptide level (conscious dogs [4]; [6]): 0.39 ± 0.04 ng/mL
arterial plasma insulin (conscious dogs [4]; [6]): 6 ± 1 μU/ml
hepatic sinusoidal plasma insulin (conscious dogs [4]; [6]): 17 ± 3 μU/ml
Hepatic sinusoidal plasma glucagon level (conscious dogs [4]; experimental period, mean ± SEM, n = 6): 23 ± 4 pg/mL
increase of arterial plasma insulin from basal period to last 3 h (conscious dogs [4]): 5.5 fold
increase of hepatic sinusoidal plasma insulin from basal period to last 3 h (conscious dogs [4]): 5.4 fold
average hepatic insulin level greater than in the control group (conscious dogs [4]; not statistically significant): 15 μU/ml

clearance (dog, in vivo, iv): 38 ± 5 mL/min/kg
Structure (SMILES): CC[C@H](C)[C@H](NC(=O)[C@H](Cc1ccccc1)NC(=O)[C@H](CCC(=O)O)NC(=O)[C@H](CCCCN)NC(=O)[C@H](C)NC(=O)[C@H](C)NC(=O)[C@H](CCC(N)=O)NC(=O)CNC(=O)[C@H](CCC(=O)O)NC(=O)[C@H](CC(C)C)NC(=O)[C@H](Cc1ccc(O)cc1)NC(=O)[C@H](CO)NC(=O)[C@H](CO)NC(=O)[C@@H](NC(=O)[C@H](CC(=O)O)NC(=O)[C@H](CO)NC(=O)[C@@H](NC(=O)[C@H](Cc1ccccc1)NC(=O)[C@@H](NC(=O)CNC(=O)[C@H](CCC(=O)O)NC(=O)[C@H](C)NC(=O)[C@@H](N)Cc1c[nH]cn1)[C@@H](C)O)[C@@H](C)O)C(C)C)C(=O)N[C@@H](C)C(=O)N[C@@H](Cc1c[nH]c2ccccc12)C(=O)N[C@@H](CC(C)C)C(=O)N[C@H](C(=O)N[C@@H](CCCCN)C(=O)NCC(=O)N[C@@H](CCCNC(=N)N)C(N)=O)C(C)C [GLP-1, Glucagon-like peptide 1]
share of the kidneys in the degradation of intact GLP-1 [5]: 10–20%
